Earlier results as cited in publication PMC9298787 (The Prostate, 2021).
Several values for one entry are separate records, joined by “and”; a condition that tells them apart may be missing. Equal entries are not always repeated.

Conditions: single oral 160 mg enzalutamide, fasting, three matched healthy controls

- AUC0‐∞: 245.8 µg·h/mL and 224.8 µg·h/mL
- Cmax: 3.8 µg/mL and 4.6 µg/mL
- t1/2: 115.3 h and 108.3 h and 111.6 h
Compound: CNC(=O)c1ccc(N2C(=S)N(c3ccc(C#N)c(C(F)(F)F)c3)C(=O)C2(C)C)cc1F [enzalutamide]
